{"source": "patent US11945806B2", "about": "“Stabilization of amyloidogenic immunoglobulin light chains” (The Scripps Research Institute, priority 2019, dated 2024)", "key": {"[1]": {"test_system": "WIL-FL and JTO-FL with residue 46 mutated to leucine", "assay": "Fluorogenic coumarin titration, residue 46 to leucine variants", "type": "binding, human", "from_the_text": "The residues used by JTO to bind 1 are highly conserved (FIG. 3d). Residues Y36, P44, Y87 and F98 are present in 88, 99, 95 and 100% of all human germline LC genes, respectively, whereas T46 is only present in two functional germline genes."}, "[2]": {"test_system": "5J8 Fab (LC:HC dimer)", "assay": "Binding of 1 by fluorescence", "parameters": "species or system human", "conditions": "1 at 1 μM"}, "[3]": {"test_system": "κ1-33 LCs (AL12-FL, κ I O18/O8-FL)", "assay": "Fluorogenic coumarin titration, κ1-33 LCs", "type": "binding, human", "conditions": "1 at 1 μM", "protocol": "(§1) Fluorogenic coumarin titration. LCs were concentrated to 200 μM in centrifugal concentrators with a 10 kDa membrane, unless the available material was limiting. […] Fluorescence of 1 was measured on a Gemini plate reader (Molecular Devices) using an excitation wavelength of 373 nm and emission wavelength of 445 nm. Data were normalized platewise to the plateau fluorescence value for WIL-FL to calculate the fraction of 1 bound.\nOf the two classes of human LCs, λ and κ, λ LCs are more commonly observed in AL, but a fraction of patients secrete κ1-33 LCs (12, 33). […] Recombinant expression of these κ1-33 LCs using a similar protocol to that used for λ6-57 LCs yielded both monomeric and dimeric LCs, as shown by SV-AUC (SI Appendix FIG. S7). […] Binding of an excess of κ1-33 LCs (20 μM) to 1 (1 μM) afforded FL LC•1 fluorescence (FIG. 2f, inset)."}, "[4]": {"target": "T1, isolated λ3 C-domain (Homo sapiens, UniProt P0DOY3)", "T1 construct": "made in house; host or cells: E. coli", "assay": "Fluorogenic coumarin titration", "type": "binding", "conditions": "1 at 1 μM"}, "[5]": {"target": "human serum albumin (HSA) (Homo sapiens, UniProt P02768)", "sequence (P02768 25-609)": "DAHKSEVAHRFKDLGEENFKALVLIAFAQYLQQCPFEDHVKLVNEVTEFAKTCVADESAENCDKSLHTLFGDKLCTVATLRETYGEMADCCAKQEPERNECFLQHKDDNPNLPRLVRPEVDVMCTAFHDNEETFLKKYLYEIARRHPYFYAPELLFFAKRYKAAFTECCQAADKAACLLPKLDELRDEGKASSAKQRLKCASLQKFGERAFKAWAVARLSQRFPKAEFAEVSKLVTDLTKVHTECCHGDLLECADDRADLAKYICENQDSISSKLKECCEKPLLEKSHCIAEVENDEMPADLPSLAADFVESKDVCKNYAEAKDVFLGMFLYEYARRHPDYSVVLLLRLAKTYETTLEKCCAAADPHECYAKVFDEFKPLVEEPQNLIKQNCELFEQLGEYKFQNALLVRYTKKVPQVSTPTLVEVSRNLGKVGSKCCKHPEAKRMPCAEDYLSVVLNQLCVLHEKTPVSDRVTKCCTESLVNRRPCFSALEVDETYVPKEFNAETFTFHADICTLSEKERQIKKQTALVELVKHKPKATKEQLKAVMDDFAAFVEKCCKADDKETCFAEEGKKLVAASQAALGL", "assay": "Binding of 1 to albumin by fluorescence of 1", "from_the_text": "Therefore, kinetic stabilizer binding selectivity to FL LCs in preference to other plasma proteins is important to minimize the proportion of free FL LC. Albumin binds many small molecules in blood, typically with μM KD values."}, "[6]": {"test_system": "WIL-FL*", "assay": "FP artefact counterscreen (compounds added after 24 h of proteinase K treatment)", "type": "biochemical, human", "conditions": "compound added after 24 h PK treatment; mean ± sd, n=3", "protocol": "Secondly, to remove compounds that interfere with the FP measurement, the primary screen was repeated in triplicate but compounds were added after 24 h of proteinase K treatment (FIG. 1f). […] Bona fide hits should retain no FP beyond the low control."}, "[7]": {"target": "JTO-V (Homo sapiens, UniProt P01721)", "assay": "NMR native-state hydrogen-deuterium exchange", "type": "biochemical", "conditions": "1 at 500 μM", "protocol": "(§2) Native-state hydrogen exchange experiments were measured for WIL-V at 0.2 mM and JTO-V at 0.1 mM with or without 0.5 mM 1. […] Per-residue exchange rates k, were converted to free energies using the equation where krc are the residue-specific exchange rates of unprotected amides (18):\n(§3) To verify that binding of 1 reduces LC unfolding under non-denaturing conditions, we measured residue-specific hydrogen-deuterium exchange rates by NMR of WIL-V and JTO-V (100 μM) in the absence of or with 1 (500 μM). These rates (the decrease in intensity of the HSQC peak associated with each amide) are converted to free energies that report on each amide's folding equilibrium by normalizing for the published exchange rates of amides in unstructured peptides."}, "[8]": {"target": "WIL-V (Homo sapiens, UniProt P01721)", "assay": "NMR native-state hydrogen-deuterium exchange", "type": "biochemical", "conditions": "1 at 500 μM", "protocol": "as §2, §3"}, "[9]": {"test_system": "isolated V-domains from WIL, ALMC2 and 6aJL2", "assay": "Fluorogenic coumarin titration, isolated V-domains", "type": "binding, human", "conditions": "1 at 1 μM", "protocol": "as §1\nA successful kinetic stabilizer should, but is not required to, bind to and stabilize patient LCs with a vast range of sequences (30, 31). To ask whether 1 can stabilize other FL LC sequences, we measured binding of 1 to three more recombinant λ6-57 FL LC disulfide-linked dimers: JTO-FL; ALMC2-FL, an AL-associated LC sequence derived from the ALMC2 cell line (32); and the germline sequence 6aJL2-FL."}, "[10]": {"test_system": "WIL-FL C214S", "assay": "Aggregation measured by SEC (disappearance of soluble dimeric LC)", "type": "biochemical, human", "conditions": "1 at 200 μM, LC 10 μM, pH 5, 37° C.; 0.066 hr^−1 in the absence of 1", "protocol": "Aggregation. WIL C214S was dialyzed into ddH2O and filtered. Each 1 ml reaction contained 10 μM LC, ddH2O, 1% DMSO or 200 μM 1 in 1% DMSO, 150 mM NaCl, and ABC buffer (20 mM sodium acetate, 20 mM boric acid, 20 mM sodium citrate, pH 5 with HCl). Components are listed in the order they were added.\nFor analysis by SEC, reactions were set up in 2 ml tubes (Axygen #SCT-200-B-S) equipped with 4 mm stir bars. For each experiment, four reactions (two replicates each of vehicle and 1) were placed in a microfuge tube rack on top of the center of a stir plate. Reactions were stirred at approximately 2,000 rpm at 37° C., and 60 μl aliquots were removed at the indicated timepoints. Aliquots were centrifuged at 16,000 g at 4° C. for 5 min. 10 μl of the supernatant was injected into a Waters Acquity H-Class Bio-UPLC (ultra performance liquid chromatography) instrument equipped with a BEH200 SEC column (Waters, Milford, MA) equilibrated with PBS with 1 mM EDTA. At the end of an experiment, stir bars were washed for at least 3 h with 1 M NaOH, followed by at least 3 h with 6 M GuHCl at room temperature to remove residual aggregates.\nThus, we also quantified aggregation by measuring the rate of disappearance of soluble dimeric LC using size exclusion chromatography (SEC) (4). […]"}}, "data": [{"smiles": "CCN(CC)c1ccc2c(C)cc(=O)oc2c1", "note": "[Compound 1, 7-diethylamino-4-methylcoumarin]", "values": [{"measurement": "binding affinity of 1", "setting": "[1]", "value": "slightly enhances the binding affinity"}, {"measurement": "binding to 1 as measured by fluorescence", "setting": "[2]", "value": "no apparent binding"}, {"measurement": "binding of 1", "setting": "[3]", "value": "weaker than binding to λ6-57 LCs"}, {"measurement": "binding of 1", "setting": "[4]", "value": "No binding"}, {"measurement": "Kd", "setting": "[5]", "value": "37 ± 3", "unit": "µM"}, {"measurement": "affinity of 1 for albumin in the presence of diflunisal", "setting": "[5]; 100 μM diflunisal", "value": "reduced"}, {"measurement": "Counterscreen activity (%)", "setting": "[6]", "value": "−8.07 ± 3.3", "unit": "%"}, {"measurement": "average stabilization (free energy from exchange rates)", "setting": "[7]", "value": 0.6, "unit": "kcal/mol"}, {"measurement": "average stabilization (free energy from exchange rates)", "setting": "[8]", "value": 0.6, "unit": "kcal/mol"}, {"measurement": "affinity for 1", "setting": "[9]", "value": "reduced affinity"}, {"measurement": "kagg", "setting": "[10]", "value": 0.011, "unit": "h⁻¹"}]}]}
